# Measured values reported in paper PMC6992764 (Nature Communications, 2020).
# Legend:
# [1] = target: T1, FROUNT-CCR5 interaction (Homo sapiens, UniProt Q9BW27); experiment: HTRF FROUNT-CCR5 interaction assay; assay type: binding
# T1 construct: GST-fused FROUNT (FNT-C)
# T1 sequence (Q9BW27 500-656 limits assumed): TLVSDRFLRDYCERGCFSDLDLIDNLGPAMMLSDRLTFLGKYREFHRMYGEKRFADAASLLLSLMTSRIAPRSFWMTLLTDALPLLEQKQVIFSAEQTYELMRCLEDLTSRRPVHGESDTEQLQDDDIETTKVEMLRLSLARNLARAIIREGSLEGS
# [2] = system: MMTV-PyVT spontaneous mammary tumor; experiment: MMTV-PyVT spontaneous mammary tumor model; assay type: in vivo, mice; conditions: treatment from age of 17 weeks
# [3] = system: B16 tumor cells; experiment: B16 tumor cell growth (WST-1 assay); assay type: cell-based; conditions: B16, 48 h
# Method: To evaluate the effects of compounds on cell growth, cells were incubated with inhibitors for 48 h, then WST-1 (Dojindo) was added to the culture for the final 30 min. An Envision instrument (PerkinElmer) was used to measure the absorbance of each well at 450 nm versus a 650-nm reference to detect the amount of formazan produced from WST-1 by mitochondrial dehydrogenases in viable cells.
# [4] = system: THP-1 cells; experiment: Chemotaxis inhibition assay (chemoTX chamber, CCL2); assay type: cell-based, human; conditions: towards CCL2, 90 min
# Method: Chemotaxis was measured in a 96-well chemoTX chemotaxis chamber with a polycarbonate filter (5-μm pore size) (Neuro probe). Human CCL2 (R&D Systems) was added to the lower chamber of the plate and the cells were added to the upper chamber. After incubation at 37 °C and 5% CO2 for 90 min, the filter was removed and the number of migrated cells in the lower chamber was counted using a cell counting kit F (Dojindo). Data are expressed as migration efficiency (percentage of the maximal migration).
# [5] = system: THP-1 cells; experiment: Chemotaxis assay using TAXIScan; assay type: cell-based, human; conditions: DSF 50 µM, towards CCL2
# Method: The TAXIScan device (ECI, Tokyo, Japan) is an optically accessible horizontal chemotaxis apparatus consisting of an etched silicon substrate and a flat glass plate, which form two compartments separated by a 5-μm deep microchannel. THP-1 cells were applied through a hole connected to one of the compartments and aligned along the start line on the edge of the channel. Human CCL2 (10 ng mL^–1) was applied through a hole connected to the other compartment to form a concentration gradient in the channel. Time-lapse images were recorded every 30 s for 30 min and cell movement was analyzed using TAXIScan analyzer software (ECI, Tokyo, Japan).
# [6] = target: T2, FROUNT-CCR2 interaction (Homo sapiens, UniProt Q9BW27); experiment: HTRF FROUNT-CCR2 interaction assay; assay type: binding
# T2 construct: GST-fused FROUNT (FNT-C)
# T2 sequence (Q9BW27 500-656 limits assumed): T1 sequence (Q9BW27 500-656 limits assumed)
# [7] = system: PI3K activation in CCR2-expressing Chinese hamster ovary cells; experiment: PH-Akt domain translocation assay; assay type: cell-based; conditions: 25 µM DSF for 30 min
# Source text: CCR2-expressing Chinese hamster ovary cells were transfected with PH-Akt-tHcRed. […] Cells were visualized with confocal microscopy using SP5 (Leica).
# [8] = system: Lewis lung carcinoma (LLC); experiment: LLC subcutaneous tumor-growth model; assay type: in vivo, mice
# Method: For evaluating subcutaneous tumor growth, LLC or B16 cells (5 × 10^5) in 50 μl PBS were inoculated subcutaneously into the right flanks of mice. Mice were euthanized when their tumor volumes reached 4000 mm^3. Tumor sizes were measured twice a week using calipers. Tumor volume was calculated using the following formula: Volume = (width)^2 × length/2. For the lung metastasis model, 1 × 10^6 LLC or B16 cells in 200 μl PBS were injected intravenously into mice. Mice were euthanized at day 10 after tumor injection for the LLC model and day 5–9 for the B16 model, and the lungs were isolated after perfusion with PBS via the left ventricle. Visible lung metastases were counted in the left lobe. The diameters of metastatic nodules in the lung lobe image were measured using ImageJ software. […]
# Cells for flow cytometric analysis were prepared as follows: bone marrow cells were flushed from femurs, followed by incubation with ACK buffer to remove red blood cells. […] After blocking Fc receptors through incubation with an anti-mouse CD16/32 antibody (clone 2.4G2, dilution 1:100, Cat BE0307), cells were stained with fluorescence-labeled anti-mouse monoclonal antibodies. […] Flow cytometry data were obtained using a Gallios flow cytometer (Beckman Coulter) and analyzed with FlowJo software (version 10; FlowJo, LLC). […]
smiles,measurement,setting,value
"CCN(CC)C(=S)SSC(=S)N(CC)CC [DSF, disulfiram]",inhibition of FROUNT-CCR5 interaction,[1],specifically inhibited
same,growth of established tumors,[2],impaired
same,in vitro growth,[3],no effect
same,cellular chemotaxis,[4],inhibited
same,chemotaxis directionality,[5],impaired
same,chemotaxis velocity,[5],impaired
same,inhibition of FROUNT-CCR2 interaction,[6]; HTRF,specifically inhibited
same,IC50,[6]; HTRF titration assay,42 nM
same,membrane localization of PH-Akt upon CCL2 stimulation,[7],significantly impaired
same,number of tumor-associated monocytes/macrophages,[8]; day 20 after tumor inoculation,reduced
same,subcutaneous tumor growth,[8]; oral DSF in diet (0.8 mg DSF/1 g CE-2) from 4 days after inoculation,inhibited
